Reference: PubChem BioAssay (NCI)
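Cells were grown in 96-well plates and exposed to each compound for 48 hours at five concentrations; endpoints were interpolated linearly between bracketing concentrations, or set to the highest concentration if not reached. At the GI50, growth is halved. TGI is the concentration that stops growth completely.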

Legend:
Test in all cases: NCI-60 cell line screen, 48 h
U251 CNS = system: U251 CNS
TK-10 renal = system: TK-10 renal
HT29 colon = system: HT29 colon
786-0 renal = system: 786-0 renal
SK-MEL-2 melanoma = system: SK-MEL-2 melanoma
SNB-19 CNS = system: SNB-19 CNS
SK-MEL-5 melanoma = system: SK-MEL-5 melanoma
UACC-62 melanoma = system: UACC-62 melanoma
MOLT-4 leukemia = system: MOLT-4 leukemia
SF-539 CNS = system: SF-539 CNS
SK-OV-3 ovarian = system: SK-OV-3 ovarian

Cc1ccc(S(=O)(=O)OCC(=O)O)cc1
TGI (U251 CNS): > 100 µM
TGI (TK-10 renal): > 100 µM
TGI (HT29 colon): > 100 µM
TGI (786-0 renal): > 100 µM
TGI (SK-MEL-2 melanoma): > 100 µM
TGI (SNB-19 CNS): > 100 µM
TGI (SK-MEL-5 melanoma): > 100 µM
TGI (UACC-62 melanoma): > 100 µM
TGI (MOLT-4 leukemia): > 100 µM

CCCCCC(=O)NC(=S)Nc1nn[nH]n1
TGI (U251 CNS): > 100 µM
TGI (TK-10 renal): > 100 µM
TGI (SF-539 CNS): > 100 µM
TGI (786-0 renal): > 100 µM
TGI (SK-MEL-2 melanoma): > 100 µM
TGI (SK-OV-3 ovarian): > 100 µM
TGI (SNB-19 CNS): > 100 µM
TGI (SK-MEL-5 melanoma): > 100 µM
TGI (UACC-62 melanoma): > 100 µM
TGI (MOLT-4 leukemia): > 100 µM

COc1cc(Nc2c3ccccc3nc3ccccc23)ccc1NS(C)(=O)=O
TGI (U251 CNS): 25.2 µM
TGI (SF-539 CNS): 15.6 µM
TGI (SK-MEL-2 melanoma): 23.6 µM
TGI (SK-OV-3 ovarian): 30.8 µM
TGI (SNB-19 CNS): 48 µM
TGI (SK-MEL-5 melanoma): 28.6 µM
TGI (UACC-62 melanoma): 26.7 µM
TGI (MOLT-4 leukemia): > 100 µM

N=C(N)c1ccc(N=Nc2c(O)ccc3c2[nH]c2ccccc23)cc1
TGI (TK-10 renal): > 95.3 µM
TGI (SF-539 CNS): > 100 µM
TGI (HT29 colon): > 100 µM
TGI (SK-MEL-2 melanoma): > 100 µM
TGI (SK-OV-3 ovarian): 79.9 µM
TGI (SNB-19 CNS): > 100 µM
TGI (SK-MEL-5 melanoma): > 100 µM
TGI (UACC-62 melanoma): > 100 µM
TGI (MOLT-4 leukemia): 5.27 µM

COc1ccc(/C(Cl)=C(\C=O)c2ccc(F)cc2)cc1OC
TGI (U251 CNS): 33.6 µM
TGI (TK-10 renal): > 100 µM
TGI (SF-539 CNS): 59 µM
TGI (HT29 colon): 36.3 µM
TGI (SK-MEL-2 melanoma): 39.4 µM
TGI (SK-OV-3 ovarian): 77.2 µM
TGI (SNB-19 CNS): > 100 µM
TGI (SK-MEL-5 melanoma): 37.7 µM
TGI (UACC-62 melanoma): 61.6 µM
TGI (MOLT-4 leukemia): 71.7 µM

C[C@]12CCc3nc(Nc4ccccc4)sc3C1=CC[C@@H]1[C@@H]2CC[C@]2(C)/C(=N/NC(N)=S)CC[C@@H]12
GI50 (U251 CNS): 3.64 µM
TGI (U251 CNS): > 100 µM
GI50 (TK-10 renal): 46.4 µM
TGI (TK-10 renal): > 100 µM
GI50 (HT29 colon): 2.23 µM
TGI (HT29 colon): > 100 µM
GI50 (SK-MEL-2 melanoma): 5.89 µM
TGI (SK-MEL-2 melanoma): > 100 µM
GI50 (SK-OV-3 ovarian): 82.7 µM
TGI (SK-OV-3 ovarian): > 100 µM
GI50 (SNB-19 CNS): 10.3 µM
TGI (SNB-19 CNS): > 100 µM
GI50 (SK-MEL-5 melanoma): 5.9 µM
TGI (SK-MEL-5 melanoma): > 100 µM
GI50 (UACC-62 melanoma): 5.85 µM
TGI (UACC-62 melanoma): > 100 µM
GI50 (MOLT-4 leukemia): 1.88 µM
TGI (MOLT-4 leukemia): > 100 µM

O=C(NC(Cc1ccc(I)cc1)C(=O)O)c1ccc(Br)cc1 (stereo not drawn)
TGI (U251 CNS): > 100 µM
TGI (SF-539 CNS): > 100 µM
TGI (HT29 colon): > 100 µM
TGI (SK-MEL-2 melanoma): > 100 µM
TGI (SK-OV-3 ovarian): > 100 µM
TGI (SNB-19 CNS): > 100 µM
TGI (SK-MEL-5 melanoma): > 100 µM
TGI (UACC-62 melanoma): > 100 µM
TGI (MOLT-4 leukemia): > 100 µM

Nc1ccc(N=Nc2ccccc2)cc1
TGI (U251 CNS): > 100 µM
TGI (TK-10 renal): > 100 µM
TGI (SF-539 CNS): > 100 µM
TGI (HT29 colon): > 100 µM
TGI (786-0 renal): > 100 µM
TGI (SK-MEL-2 melanoma): 68.4 µM
TGI (SK-OV-3 ovarian): > 100 µM
TGI (SNB-19 CNS): > 100 µM
TGI (SK-MEL-5 melanoma): > 100 µM
TGI (UACC-62 melanoma): > 100 µM
TGI (MOLT-4 leukemia): > 100 µM

COc1ccc(O)cc1
TGI (U251 CNS): > 100 µM
TGI (TK-10 renal): > 100 µM
TGI (SF-539 CNS): > 100 µM
TGI (HT29 colon): > 100 µM
TGI (786-0 renal): > 100 µM
TGI (SK-MEL-2 melanoma): > 100 µM
TGI (SK-OV-3 ovarian): > 100 µM
TGI (SNB-19 CNS): > 100 µM
TGI (SK-MEL-5 melanoma): > 100 µM
TGI (UACC-62 melanoma): 87.1 µM
TGI (MOLT-4 leukemia): > 100 µM

Nc1ccc2[nH]c3c(-c4ccccc4)nccc3c2c1
TGI (U251 CNS): > 100 µM
TGI (SF-539 CNS): > 100 µM
TGI (HT29 colon): > 100 µM
TGI (SK-MEL-2 melanoma): > 100 µM
TGI (SK-OV-3 ovarian): > 100 µM
TGI (SNB-19 CNS): > 100 µM
TGI (SK-MEL-5 melanoma): > 31.6 µM
TGI (UACC-62 melanoma): > 80.8 µM
TGI (MOLT-4 leukemia): 22.8 µM

Cc1[nH]c(=O)[nH]c(=O)c1/C=C/C(=O)O
TGI (U251 CNS): > 1000 µM
TGI (SF-539 CNS): > 1000 µM
TGI (HT29 colon): > 1000 µM
TGI (SK-MEL-2 melanoma): > 1000 µM
TGI (SK-OV-3 ovarian): > 1000 µM
TGI (SNB-19 CNS): > 1000 µM
TGI (SK-MEL-5 melanoma): > 1000 µM
TGI (UACC-62 melanoma): > 1000 µM
TGI (MOLT-4 leukemia): > 1000 µM
